Laboratory results reported in PMC3500442 (ACS Chemical Biology, 2012).

Target: T1, MJ0408 (MptD, archaeal DHNA) (Methanocaldococcus jannaschii, UniProt Q57851)
T1 sequence (Q57851 1-121): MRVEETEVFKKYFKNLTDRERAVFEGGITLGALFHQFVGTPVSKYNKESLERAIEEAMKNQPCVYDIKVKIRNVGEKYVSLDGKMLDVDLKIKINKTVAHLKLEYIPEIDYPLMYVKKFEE
Assay: HPLC fluorescence after iodine oxidation
Format: biochemical
Conditions: 110 uM H2Neo, 8 mM MgCl2, 16 mM DTT, TES/KCl pH 7.4, 70 °C, argon

| Compound | HPLC fluorescence after iodine oxidation |
| --- | --- |
| Nc1nc2c(c(=O)[nH]1)N=C(CO)CN2 [6-HMD, 6-hydroxymethyl-7,8-dihydropterin] | it was found to catalyze the formation of 6-HMD from H2Neo |
| Nc1nc2c(c(=O)[nH]1)N=C([C@H](O)[C@H](O)CO)CN2 [H2Neo, 7,8-dihydroneopterin] | it was found to catalyze the formation of 6-HMD from H2Neo |
